Measured values from US20110110916A1, “METHODS FOR TREATING AND/OR PREVENTING CARDIOMYOPATHIES BY ERK OR JNK INHIBITION” (priority 2008, published 2011).
Where two headings read alike, the source gives them in different places.

Legend:
Lmna^H222P/H222P mice [1] = format: in vivo, mouse; details: Lmna^H222P/H222P mice at 16 weeks of age; i.p. 5 days a week from 8 to 16 weeks (PD98059, SP600125 3 mg/kg/day); means ± standard deviations
Experimental: PD98059 (Calbiochem) and SP600125 (Calbiochem) were dissolved in Dimethyl Sulfoxide (DMSO, Sigma) at a concentration of 0.5 mg/ml and were delivered to a dose of 3 mg/kg/day for 5 days a week. […] The placebo control consisted of DMSO alone. Placebo and inhibitors were administered by intraperitoneal injection using a 27G^5/8 syringe. Treatment was started when mice were 8 weeks of age and continued until 16 weeks of age.
Lmna H222P knock-in mice were generated and genotyped as described (14). […] Lmna^H222P/H222P mice were separated by sex and were given either vehicle alone (DMSO), the MEK inhibitor PD98059 alone, the JNK inhibitor SP600125 alone, both PD98059 and SP600125 together, the MEK inhibitor U0126 alone, or the MEK inhibitor MEK1/2 alone. All the mice were fed on a chow diet and housed in a barrier facility. The Institutional Animal Care and Use Committee at Columbia University Medical Center approved the use of animals in the study protocol.
Cardiac function was assessed by echocardiography with a Visualsonics Vevo 770 ultrasound with a 30-MHz transducer applied to the chest wall. Cardiac ventricular dimensions and ejection fraction were measured in 2D-mode and M-mode three times for the number of animals indicated. A “blinded” echocardiographer, unaware of the genotype or treatment, performed the examinations.
We administered PD98059, at a dose of 3 mg/kg/day or 6 mg/kg/day, or placebo (dimethylsulfoxide; DMSO) by intraperitoneal injection 5 days a week to male homozygous Lmna mutant mice (Lmna^H222P/H222P). […] PD98059 mediates its inhibitory properties by binding to MEK, therefore preventing phosphorylation of ERK1/2.
(§1) Treatment was initiated at 8 weeks of age and continued until the mice were 16 weeks of age. At 16 weeks of age, the mice were analyzed by echocardiography and then sacrificed for histological and biochemical studies. Untreated male Lmna^+/+ and Lmna^H222P/H222P mice were similarly analyzed for comparisons.

Lmna^H222P/H222P mice [2] = test: Echocardiography at 20 weeks of age, second-generation MEK1/2 inhibitors from 16 to 20 weeks; format: in vivo, mouse; details: 1 mg/kg/day, 5 days a week from 16 to 20 weeks
Experimental: as §1, with “The compounds were administered at a dose of 1 mg/kg/day, 5 days a week to Lmna^H222P/H222P mice, as previously described. Treatment” for “Treatment”, “16” for “8”, “20” for “16”, “for” for “for histological and”

ERK1/2 = test: Immunoblot of phosphorylated ERK1/2 versus total ERK1/2 in hearts of treated mice; format: in vivo, mouse; details: 1 mg/kg/day from 16 to 20 weeks of age
Experimental: Hearts were excised from mice at 16-weeks of age and were homogenized in RIPA extraction buffer (Cell Signalling) containing protease inhibitors (25 […]). Protein samples were subjected to SDS-PAGE, transferred to nitrocellulose membranes and blotted with primary antibodies against ERK1/2 (Santa-Cruz), phosphorylated ERK1/2 (Cell Signaling), JNK (Santa-Cruz), natriuretic peptide precursor A (Santa-Cruz), phosphorylated JNK (Cell Signaling), and Gapdh (Ambion). Secondary antibodies were HRP-conjugated (Amersham). Recognized proteins were visualized by enhanced chemiluminescence (ECL, Amersham). The signal generated using an antibody against Gapdh was used as internal controls to normalize the amounts of protein between immunoblots.
We assessed the efficacy of the chemical entities in inhibiting their targets in the heart by immunoblot using anti-total ERK1/2 (Santa Cruz) and anti-pERK1/2 (Cell Signaling) antibodies.
Proteins were loaded on 10% SDS gels and electrotransferred on a […] pore size nitrocellulose membrane (Invitrogen). We used antibodies directed against phosphorylated ERK1/2 (Cell Signaling, 1:1,000), total ERK1/2 (Santa Cruz, 1:2,000), phosphorylated JNK (Cell Signaling, 1:1,000) and total JNK (Santa Cruz, 1:200). The secondary antibodies were coupled to horseradish-peroxydase (Amersham). Recognized proteins were visualized by enhanced chemiluminescence (SuperSignal® West Pico chemiluminescent substrate, Thermo Scientific).

[3] = tested on: hearts from Lmna^H222P/H222P mice; test: Quantitative real-time RT-PCR of mRNAs in hearts of treated mice; format: in vivo, mouse; details: for expression of Colla1 and Colla2: 20 weeks of age, 1 mg/kg/day from 16 to 20 weeks
From the text: Total RNA was extracted using the Rneasy isolation kit (Qiagen) as previously described (96). cDNA was synthesized as previously described (96) using Omniscript Reverse Transcriptase (Qiagen) on total cellular RNA. For each replicate in each experiment, RNA from tissue samples of different animals was used. Primers were designed that correspond to mouse RNA sequences using Primer3 (http://frodo.wi.mit.edu/cgi-biniprimer3/primer3_www.cgi). The real-time RT-PCR reaction contained iQ SYBR green super mix (Bio-Rad), 200 nM of each primer and 0.2 μl of template in a 25 μl reaction volume. Amplification was carried out using appropriate primers and the MyiQ Single-Color Real-Time PCR Detection System (Bio-Rad) with an initial denaturation at 95° C. for 2 min followed by 50 cycles at 95° C. for 30 s and 62° C. for 30 s. Relative levels of mRNA expression were calculated using the CT method (67). Individual expression values were normalized by comparison with Gapdh mRNA.
Real-time reverse transcription-PCR (RT-PCR) was used to quantify tissue RNA levels. Total RNA was extracted from cardiac ventricles of mice using the Rneasy isolation kit (Qiagen) as previously described. cDNA was synthesized using Superscript first strand synthesis system according to the manufacturer's instructions (Invitrogen) on total RNA. For each replicate in each experiment, RNA from tissue samples of different animals was used. Primers were designed correspond to mouse RNA sequences using Primer3 (http://frodo.wi.mit.edu/cgi-bin/primer3/primer3_www.cgi) for Nppa (forward 5′-[…]-3′ [SEQ ID NO: 4], reverse 5′-[…]-3′ [SEQ ID NO: 5]), Nppb (forward 5′-[…]-3′ [SEQ ID NO: 6], reverse 5′-[…]-3′ [SEQ ID NO: 7]), Mlc-2a (forward 5′-[…]-3′ [SEQ ID NO: 8], reverse 5′-[…]-3′ [SEQ ID NO: 9]), Colla1 (forward 5′-[…]-3′ [SEQ ID NO: 10], reverse 5′-[…]-3′ [SEQ ID NO: 11]), Colla2 (forward 5′-[…]-3′ [SEQ ID NO: 12], reverse 5′-[…]-3′ [SEQ ID NO: 13]) and Fn1 (forward 5′-[…]-3′ [SEQ ID NO: 14], reverse 5′-[…]-3′ [SEQ ID NO: 15]). The real-time RT-PCR reaction contained iQ SYBR green super mix (Bio-Rad), 200 nM of each primer, and 0.2 μl of template in a 25 μl reaction volume. Amplification was carried out using the MyiQ Single-Color Real-Time PCR Detection System (Bio-Rad) with an initial denaturation at 95° C. for […] followed by 50 cycles at 95° C. for 30 s and 62° C. for 30 s. Relative levels of mRNA expression were calculated using the ΔΔCT method (2). Individual expression values were normalized by comparison with Gapdh mRNA (forward 5′-[…]-3′ [SEQ ID NO: 16], reverse 5′-[…]-3′ [SEQ ID NO: 17]).

[4] = tested on: hearts from Lmna^H222P/H222P mice; test: Quantification of myocardial fibrotic area (Gomori's trichrome); format: in vivo, mouse; details: 20 weeks of age; 1 mg/kg/day from 16 to 20 weeks; DMSO 20.93%±2.45%
From the text: Later-stage cardiomyopathy caused by LMNA mutations is characterized by myocardial fibrosis. […] We quantified the myocardial fibrotic area of each animal by determining the ratio of fibrotic tissue (blue stained with Gomori's trichrome) to the total tissue area in each micrograph (FIG. 8B). Hearts from DMSO-treated Lmna^H222P/H222P mice had 20.93%±2.45% fibrotic tissue per total surface examined (FIG. 8B).
Mice were sacrificed at 20 weeks of age, and freshly removed hearts were fixed in 4% formaldehyde for 48 hours, embedded in paraffin, sectioned at 5 μm and stained with hematoxylin, eosin and Gomori's trichrome and Syrius Red. Representative stained sections were photographed using a Microphot SA (Nikon) light microscope attached to a Spot RT Slide camera (Diagnostic Instruments) with a 10× objective. Images were processed using Adobe Photoshop CS (Adobe Systems).
Later-stage cardiomyopathy caused by LMNA mutations is characterized by myocardial fibrosis (21,22). […] We quantified the myocardial fibrotic area of each animal by determining the ratio of fibrotic tissue (blue stained with Gomori's trichrome) to the total tissue area in each micrograph (FIG. 34C). Hearts from DMSO-treated Lmna^H222P/H222P mice had 15.01±0.9% fibrotic tissue per total surface examined (FIG. 34D).

[5] = tested on: atrial natriuretic factor; test: Serum atrial natriuretic factor before and after treatment; format: in vivo, mouse; details: before (16 weeks) and after (20 weeks) treatment; compared to DMSO-treated mice
From the text: We measured the expression of atrial-natriuretic factor in the serum Lmna^H222P/H222P mice before (16 weeks) and after (20 weeks) the treatment with the MEK1/2 inhibitors (FIG. 3).

MEK1/2 = details: Table 10, description of MEK1/2 inhibitors; cited from earlier work
[6] = 1 mg/kg/day from 16 to 20 weeks of age

| SMILES | EF (Lmna^H222P/H222P mice [1]) [%] | FS (Lmna^H222P/H222P mice [1]) [%] | IVSD (Lmna^H222P/H222P mice [1]) [mm] | LVEDD (Lmna^H222P/H222P mice [1]) [mm] | LVESD (Lmna^H222P/H222P mice [1]) [mm] | LVPW (Lmna^H222P/H222P mice [1]) [mm] | FS (Lmna^H222P/H222P mice [2]) | phosphorylation of ERK1 and ERK2 in hearts (ERK1/2) | cardiac expression of brain natriuretic factor (Nppb) [3, 6] | decrease of Mlc-1a and Mlc-2a mRNAs compared to hearts of DMSO-treated mice [3, 6] | expression of Colla1 and Colla2 [3] | area of fibrotic tissue per total surface examined [4] | expression of atrial natriuretic factor in serum [5] | LVEDD compared to DMSO-treated mice (Lmna^H222P/H222P mice [2]) | LVESD compared to DMSO-treated mice (Lmna^H222P/H222P mice [2]) | IC50 (MEK1/2) [nM] | FS improvement (Lmna^H222P/H222P mice [2]) |
| --- | --- | --- | --- | --- | --- | --- | --- | --- | --- | --- | --- | --- | --- | --- | --- | --- | --- |
| N#CC(=C(N)Sc1ccc(N)cc1)c1ccccc1C(F)(F)F [MEK1/2, Z-& E-a-(amino-((4-aminophenyl)thio)methylene)-2-(trifluoromethyl)benzeneacetonitrile] | 64.43 ± 0.77 | 34.50 ± 0.36 | 0.60 ± 0.00 | 3.77 ± 0.32 | 2.62 ± 0.28 | 0.69 ± 0.08 | – | – | – | – | – | – | – | – | – | – | – |
| O=C(NOCC(O)CO)c1ccc(F)c(F)c1Nc1ccc(I)cc1F (centres unmarked) [PD0325901] | – | – | – | – | – | – | 23.23%±6.33% | inhibited partially | decreased | approximately 2 fold | significantly lowered | 15.06%±0.28% | trend toward diminished expression | – | – | – | – |
| Cn1cnc2c(F)c(Nc3ccc(Br)cc3Cl)c(C(=O)NOCCO)cc21 [AZD6244] | – | – | – | – | – | – | 25.97%±5.05% | inhibited partially | – | approximately 2 fold | significantly lowered | 11.90%±1.97% | significantly decreased | significantly smaller | significantly smaller | 10 | – |
| O=C(NOCC1CC1)c1ccc(F)c(F)c1Nc1ccc(I)cc1Cl [CI-1040] | – | – | – | – | – | – | – | inhibited partially | – | – | significantly lowered | 13.10%±0.96% | significantly decreased | significantly smaller | – | 1 | not improved |
| N#CC(=C(N)Sc1ccccc1N)C(C#N)=C(N)Sc1ccccc1N [U0126, 1,4-diamino-2,3-dicyano-1,4-bis(2-aminophenylthio)butadiene] | 62.83 ± 4.09 | 33.79 ± 3.10 | 0.64 ± 0.03 | 3.54 ± 0.16 | 2.47 ± 0.09 | 0.69 ± 0.11 | – | – | – | – | – | – | – | – | – | – | – |
